For this assay, the system named is CD2F1 mice, L1210 leukemia ip, survival T/C. Kind of assay: NCI In Vivo Anticancer Drug Screen. Data for tumor model L1210 Leukemia (intraperitoneal) in CD2F1 (CDF1) mice. The settings on record: higher = longer survival. The procedure, abridged: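 Each value reflects a quotient of treated over vehicle control outcomes in mice with a transplanted tumor.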
Where [1] appears, read: endpoint: mean survival time, dose: 100.0 mg/kg/injection, schedule: Q04DX003 (ip), vehicle: saline with Tween-80.
The mark [2] stands for this setting: endpoint: mean survival time, dose: 100.0 mg/kg/injection, schedule: Q01DX009 (ip), vehicle: saline with Tween-80.
[3] abbreviates: endpoint: mean survival time, dose: 200.0 mg/kg/injection, schedule: Q01DX009 (ip), vehicle: saline with Tween-80.
Setting [4] is: endpoint: mean survival time, dose: 200.0 mg/kg/injection, schedule: Q04DX003 (ip), vehicle: saline with Tween-80.
Where [5] appears, read: endpoint: mean survival time, dose: 400.0 mg/kg/injection, schedule: Q01DX009 (ip), vehicle: saline with Tween-80.
Setting [6] is: endpoint: mean survival time, dose: 400.0 mg/kg/injection, schedule: Q04DX003 (ip), vehicle: saline with Tween-80.
Setting [7] is: endpoint: mean survival time, dose: 50.0 mg/kg/injection, schedule: Q01DX009 (ip), vehicle: saline with Tween-80.

Where “and” joins values, the source holds several entries; their conditions need not be identical. Identical values can stand only once. Toxic doses and inconclusive results are not listed.

As for `O=NN1CCOC1=NC1CCCCC1`, the T/C is, setting by setting: (endpoint: mean survival time, dose: 3.12 mg/kg/injection, schedule: Q01DX001 (ip), vehicle: distilled water + Tween-80) 97 % of control; (endpoint: mean survival time, dose: 6.25 mg/kg/injection, schedule: Q01DX001 (ip), vehicle: distilled water + Tween-80) 94 % of control; (endpoint: mean survival time, dose: 12.5 mg/kg/injection, schedule: Q01DX001 (ip), vehicle: distilled water + Tween-80) 98 % of control; (endpoint: mean survival time, dose: 25.0 mg/kg/injection, schedule: Q01DX001 (ip), vehicle: distilled water + Tween-80) 97 % of control; (endpoint: mean survival time, dose: 50.0 mg/kg/injection, schedule: Q01DX001 (ip), vehicle: distilled water + Tween-80) 100 % of control; (endpoint: mean survival time, dose: 100.0 mg/kg/injection, schedule: Q01DX001 (ip), vehicle: distilled water + Tween-80) 100 % of control. Moreover, the T/C by setting is: (endpoint: mean survival time, dose: 200.0 mg/kg/injection, schedule: Q01DX001 (ip), vehicle: distilled water + Tween-80) 110 % of control; (endpoint: mean survival time, dose: 400.0 mg/kg/injection, schedule: Q01DX001 (ip), vehicle: distilled water + Tween-80) 110 % of control.

Consider `CC12C(=O)OC(=O)C1(C)C1OC2C(Br)C1Br` (stereo not drawn), for which the T/C reads like this: (endpoint: mean survival time, dose: 25.0 mg/kg/injection, schedule: Q04DX003 (ip), vehicle: saline with Tween-80) 96 % of control; (endpoint: mean survival time, dose: 50.0 mg/kg/injection, schedule: Q04DX003 (ip), vehicle: saline with Tween-80) 96 % of control; under setting [1], 93 % of control and 101 % of control.

With `Cc1ccc(S(=O)(=O)OC(c2ccc(C(OS(=O)(=O)c3ccc(C)cc3)(C(F)(F)F)C(F)(F)F)cc2)(C(F)(F)F)C(F)(F)F)cc1`, the T/C is, setting by setting: (endpoint: mean survival time, dose: 100.0 mg/kg/injection, schedule: Q01DX001 (ip), vehicle: saline with Tween-80) 96 % of control; (endpoint: mean survival time, dose: 200.0 mg/kg/injection, schedule: Q01DX001 (ip), vehicle: saline with Tween-80) 95 % of control; (endpoint: mean survival time, dose: 400.0 mg/kg/injection, schedule: Q01DX001 (ip), vehicle: saline with Tween-80) 90 % of control.

Regarding `CN(C)c1ccc(CN2CCCN(Cc3ccc(N(C)C)cc3)C2c2cc(Cl)ccc2O)cc1`, the T/C is, setting by setting: under setting [2], 86 % of control; under setting [1], 98 % of control; under setting [3], 93 % of control; under setting [4], 92 % of control; under setting [5], 86 % of control; under setting [6], 92 % of control.

Turning to `O=c1c2ccccc2oc2ccccc12`, the T/C under setting [7] was 95 % of control, the T/C under setting [2] was 100 % of control and the T/C under setting [3] is 93 % of control.

For `Nc1cccc2cnccc12`, the T/C under setting [2] is 100 % of control; the T/C under setting [1] was 91 % of control; the T/C under setting [3] is 98 % of control; the T/C under setting [4] is 93 % of control; the T/C under setting [6] is 96 % of control.

Take `CCN(CC)C(=S)[S][Pb]([CH2]C)([CH2]C)[CH2]C`: where the note is “endpoint: mean survival time, dose: 6.25 mg/kg/injection, schedule: Q01DX009 (ip), vehicle: saline with Tween-80”, the T/C is 96 % of control.

For the compound `ClCCN(CCCl)c1ccc(N=Nc2ccccc2)cc1`, the T/C reads like this: (endpoint: mean survival time, dose: 100.0 mg/kg/injection, schedule: Q04DX003 (ip), vehicle: Klucel (hydroxypropylcellulose) (HPC)) 102 % of control; (endpoint: mean survival time, dose: 200.0 mg/kg/injection, schedule: Q04DX003 (ip), vehicle: Klucel (hydroxypropylcellulose) (HPC)) 113 % of control; (endpoint: mean survival time, dose: 400.0 mg/kg/injection, schedule: Q04DX003 (ip), vehicle: Klucel (hydroxypropylcellulose) (HPC)) 113 % of control.

`CCOc1nc(=O)n(C2OC(CO)C(O)C2O)s1` (stereo not drawn): the T/C by setting is: (endpoint: mean survival time, dose: 12.5 mg/kg/injection, schedule: Q01DX005 (ip), vehicle: distilled water + Tween-80) 100 % of control; (endpoint: mean survival time, dose: 25.0 mg/kg/injection, schedule: Q01DX005 (ip), vehicle: distilled water + Tween-80) 101 % of control; (endpoint: mean survival time, dose: 50.0 mg/kg/injection, schedule: Q01DX005 (ip), vehicle: distilled water + Tween-80) 101 % of control; (endpoint: mean survival time, dose: 100.0 mg/kg/injection, schedule: Q01DX005 (ip), vehicle: distilled water + Tween-80) 97 % of control; (endpoint: mean survival time, dose: 200.0 mg/kg/injection, schedule: Q01DX005 (ip), vehicle: distilled water + Tween-80) 102 % of control.

With `c1ccc(CSC2=NCCS2)cc1`, the T/C reads like this: under setting [1], 108 % of control; under setting [4], 98 % of control; under setting [6], 97 % of control.

Take `Nc1nc(N)c2ncn(C3CC(CO)C(O)C3O)c2n1` (stereo not drawn): under setting [7], the T/C was 89 % of control.

Turning to `C=C1CCCCCCCCCCC1O` (stereo not drawn), the T/C reads like this: under setting [1], 91 % of control; under setting [4], 95 % of control; under setting [6], 91 % of control.

Turning to `O=S(=O)(O)O.[NH-]CC1(C[NH-])CCCCC1.[Pt+2]`, the T/C was 96 % of control (endpoint: mean survival time, dose: 25.0 mg/kg/injection, schedule: Q04DX003 (ip), vehicle: saline); 108 % of control (endpoint: median survival time, dose: 15.98 mg/kg/injection, schedule: Q04DX003 (ip), vehicle: dextrose); 93 % of control (endpoint: median survival time, dose: 18.0 mg/kg/injection, schedule: Q04DX003 (ip), vehicle: dextrose); 105 % of control (endpoint: median survival time, dose: 24.0 mg/kg/injection, schedule: Q04DX003 (ip), vehicle: dextrose).

For `CCCCCCCCCC(=O)NCC[N+](C)(C)C`, the T/C reads like this: (endpoint: mean survival time, dose: 5.0 mg/kg/injection, schedule: Q01DX001 (ip), vehicle: saline) 107 % of control; (endpoint: mean survival time, dose: 10.0 mg/kg/injection, schedule: Q01DX001 (ip), vehicle: saline) 102 % of control; (endpoint: mean survival time, dose: 20.0 mg/kg/injection, schedule: Q01DX001 (ip), vehicle: saline) 103 % of control; (endpoint: mean survival time, dose: 40.0 mg/kg/injection, schedule: Q01DX001 (ip), vehicle: saline) 103 % of control; (endpoint: mean survival time, dose: 80.0 mg/kg/injection, schedule: Q01DX001 (ip), vehicle: saline) 103 % of control.

For the compound `COc1cccnc1/C=N/NC(N)=S`, the T/C is 118 % of control (endpoint: mean survival time, dose: 3.13 mg/kg/injection, schedule: Q01DX009 (ip), vehicle: saline with Tween-80); 103 % of control (endpoint: mean survival time, dose: 5.54 mg/kg/injection, schedule: Q01DX001 (ip), vehicle: saline with Tween-80); 200 % of control (endpoint: mean survival time, dose: 5.54 mg/kg/injection, schedule: Q01DX009 (ip), vehicle: saline with Tween-80); 102 % of control (endpoint: mean survival time, dose: 5.54 mg/kg/injection, schedule: Q04DX001 (ip), vehicle: saline with Tween-80); 104 % of control (endpoint: mean survival time, dose: 6.25 mg/kg/injection, schedule: Q04DX002 (ip), vehicle: saline with Tween-80); 105 % of control (endpoint: mean survival time, dose: 8.32 mg/kg/injection, schedule: Q01DX001 (ip), vehicle: saline with Tween-80). Also, the T/C is, setting by setting: (endpoint: mean survival time, dose: 8.32 mg/kg/injection, schedule: Q01DX009 (ip), vehicle: saline with Tween-80) 162 % of control; (endpoint: mean survival time, dose: 8.32 mg/kg/injection, schedule: Q04DX001 (ip), vehicle: saline with Tween-80) 105 % of control; (endpoint: mean survival time, dose: 12.5 mg/kg/injection, schedule: Q01DX001 (ip), vehicle: saline with Tween-80) 109 % of control; (endpoint: mean survival time, dose: 12.5 mg/kg/injection, schedule: Q01DX009 (ip), vehicle: saline with Tween-80) 152 % of control; (endpoint: mean survival time, dose: 12.5 mg/kg/injection, schedule: Q04DX001 (ip), vehicle: saline with Tween-80) 111 % of control; (endpoint: mean survival time, dose: 12.5 mg/kg/injection, schedule: Q04DX002 (ip), vehicle: saline with Tween-80) 104 % of control. Moreover, the T/C (endpoint: mean survival time, dose: 18.8 mg/kg/injection, schedule: Q01DX001 (ip), vehicle: saline with Tween-80) is 109 % of control and the T/C (endpoint: mean survival time, dose: 18.8 mg/kg/injection, schedule: Q04DX001 (ip), vehicle: saline with Tween-80) was 105 % of control.

Consider `CC1=NN(c2ccccc2)C(=O)C1CC1C(=O)N(c2ccccc2)N=C1C` (stereo not drawn), for which the T/C was 101 % of control under setting [2]; 96 % of control under setting [1]; 107 % of control under setting [3]; 92 % of control under setting [4]; 101 % of control under setting [5]; 88 % of control under setting [6].

These data come from PubChem BioAssay AID256 (DTP/NCI, 2004).
